The values that follow come from ChEMBL document CHEMBL4052754, “Targeting progesterone metabolism in breast cancer with l-proline derived new 14-azasteroids” (Bioorg Med Chem, 2017).

Active and inactive are the calls of the source. The calls are words filed in the database; no cut-off is given here. A value given as a limit tells only on which side of the number the result lay.

In test [1] the test system is MDA-MB-231. Kind of test: Cytotoxicity against human MDA-MB-231 cells after 24 hrs by MTT assay. The following applies: MDA-MB-231, 24 h. The test is classed as functional, cell-based.
Test [2] relates to MCF7. Kind of test: Decrease in progesterone level in human MCF7 cells at 1 to 10 uM after 24 hrs by ELISA. In kind it is functional, cell-based. In general terms: In an ELISA, binding on a coated surface is turned into a signal by an enzyme label.
Test [3] deals with MCF7. The test can be described thus: Decrease in SRD5A1 level in human MCF7 cells at 1 to 10 uM after 24 hrs by ELISA. The test is classed as functional, cell-based.
The test system of test [4] is MCF7. Kind of test: Cytotoxicity against human MCF7 cells after 24 hrs by MTT assay. The test is classed as functional, cell-based. The following applies: MCF7, 24 h. (Tetrazolium dyes change colour on reduction, which living cells bring about.)
The subject of the next test is HEK293. Kind of test: Cytotoxicity against HEK293 cells after 24 hrs by MTT assay. The test is classed as cell-based. The following applies: Homo sapiens, HEK293, 24 h.
Test [5] concerns MCF7. The test can be described thus: Decrease in 5alpha-DHP level in human MCF7 cells at 1 to 10 uM after 24 hrs by ELISA. The test is classed as functional, cell-based.
For test [6], the system named is MDA-MB-231. Kind of test: Anti-migratory activity against human MDA-MB-231 cells assessed as reduction in cell migration towards wound area at 0.5 to 10 uM after 24 hrs by phase contrast microscopic analysis. The test is classed as functional, cell-based.
The test system of test [7] is MCF7. Kind of test: Induction of mitochondrial membrane potential loss in human MCF7 cells assessed as ratio of green to red fluorescence at 0.5 uM after 24 hrs by JC1 staining based flow cytometric analysis (reference value: 1.41). In kind it is functional. Background: Flow cytometry measures light scatter and fluorescence of single cells or particles in a stream.

The subject of test [8] is MCF7. The test can be described thus: Induction of apoptosis in human MCF7 cells after 24 hrs by Annexin-V-FITC/propidium iodide staining based flow cytometric analysis. In kind it is functional, cell-based.
Test [9] relates to MDA-MB-231. Kind of test: Induction of mitochondrial membrane potential loss in human MDA-MB-231 cells after 24 hrs by JC1 staining based flow cytometric analysis. In kind it is functional, cell-based.
Test [10] deals with MCF7. The test can be described thus: Induction of mitochondrial membrane potential loss in human MCF7 cells assessed as ratio of green to red fluorescence at 1 uM after 24 hrs by JC1 staining based flow cytometric analysis (reference value: 1.41). The test is classed as functional.
The test system of test [11] is MCF7. The test can be described thus: Induction of mitochondrial membrane potential loss in human MCF7 cells after 24 hrs by JC1 staining based flow cytometric analysis. The test is classed as functional, cell-based.
The subject of test [12] is MDA-MB-231. The test can be described thus: Induction of mitochondrial membrane potential loss in human MDA-MB-231 cells assessed as ratio of green to red fluorescence at 1 uM after 24 hrs by JC1 staining based flow cytometric analysis (reference value: 4.55). The test is classed as functional.
In test [13] the test system is MDA-MB-231. The test can be described thus: Cell cycle arrest in human MDA-MB-231 cells assessed as decrease in S phase population after 24 hrs by flow cytometric analysis. In kind it is functional, cell-based.
Test [14] deals with MCF7. The test can be described thus: Cell cycle arrest in human MCF7 cells assessed as increase in sub-G1 population at 0.5 to 10 uM after 24 hrs by propidium iodide staining based flow cytometric analysis. In kind it is functional.
For test [15], the system named is MCF7. Kind of test: Cell cycle arrest in human MCF7 cells assessed as increase in G2/M population at 0.5 to 10 uM after 24 hrs by propidium iodide staining based flow cytometric analysis. The test is classed as functional.
In test [16] the test system is MDA-MB-231. Kind of test: Cell cycle arrest in human MDA-MB-231 cells assessed as increase in sub-G1 population after 24 hrs by flow cytometric analysis. The test is classed as functional, cell-based.
The subject of test [17] is MDA-MB-231. The test can be described thus: Induction of apoptosis in human MDA-MB-231 cells after 24 hrs by Annexin-V-FITC/propidium iodide staining based flow cytometric analysis. The test is classed as functional, cell-based.
Test [18] concerns MCF7. Kind of test: Induction of mitochondrial membrane potential loss in human MCF7 cells assessed as ratio of green to red fluorescence at 5 uM after 24 hrs by JC1 staining based flow cytometric analysis (reference value: 1.41). In kind it is functional.
The subject of test [19] is MCF7. Kind of test: Anti-invasive activity against human MCF7 cells assessed as inhibition of TGF-beta induced cell invasion at 0.5 to 1 uM after 24 hrs by crystal violet staining based transwell assay. In kind it is functional.
The subject of test [20] is MDA-MB-231. Kind of test: Induction of mitochondrial membrane potential loss in human MDA-MB-231 cells assessed as ratio of green to red fluorescence at 0.5 uM after 24 hrs by JC1 staining based flow cytometric analysis (reference value: 4.55). The test is classed as functional.
Test [21] deals with MDA-MB-231. The test can be described thus: Anti-migratory activity against human MDA-MB-231 cells assessed as reduction in cell migration towards wound area at 0.1 uM after 24 hrs by phase contrast microscopic analysis. The test is classed as functional, cell-based.
For test [22], the system named is MDA-MB-231. Kind of test: Cell cycle arrest in human MDA-MB-231 cells assessed as increase in G2/M-phase population after 24 hrs by flow cytometric analysis. The test is classed as functional, cell-based.
The subject of test [23] is MDA-MB-231. The test can be described thus: Induction of mitochondrial membrane potential loss in human MDA-MB-231 cells assessed as ratio of green to red fluorescence at 5 uM after 24 hrs by JC1 staining based flow cytometric analysis (reference value: 4.55). In kind it is functional.
The test system of test [24] is MDA-MB-231. Kind of test: Anti-migratory activity against human MDA-MB-231 cells assessed as reduction in cell migration towards wound area at 50 uM after 24 hrs by phase contrast microscopic analysis relative to control. In kind it is functional. On the set-up: scale not given: the % may be the effect or the level left.
The subject of test [25] is MCF7. Kind of test: Decrease in 5alpha-DHP level in human MCF7 cells after 24 hrs by ELISA. In kind it is functional, cell-based.

Take `CC(C)(C)NC(=O)[C@H]1CC[C@H]2[C@@H]3CC[C@H]4NC(=O)C=C[C@]4(C)[C@H]3CC[C@]12C` [FINASTERIDE]: the concentration for half-maximal inhibition (IC50) is greater than 50 µM in the test with MDA-MB-231 [1], 44.1 µM with MCF7 [4] and greater than 50 µM in the test on HEK293. Besides, in the test with MCF7 [2], the result was Active. In addition, the outcome in the test on MCF7 [3] and with MCF7 [5] was inactive.
In the case of `C1=C2c3ccccc3CC[C@@H]2N2C[C@H](OCc3ccccc3)C[C@H]2C1`, the half-inhibitory concentration (IC50) with MDA-MB-231 [1] is 45.3 µM; in the test with MCF7 [4], 40.6 µM; in the test on HEK293, greater than 50 µM.
The matching figures for `COc1ccc2c(c1)C1=CC[C@@H]3C[C@@H](OCc4ccccc4)CN3[C@@H]1CC2`: 42.4 µM, greater than 50 µM and greater than 50 µM.
`C[C@]12CC=C3c4ccccc4CC[C@@H]3N1CCC2`: the result in the test with MDA-MB-231 [6], with MCF7 [2], in the test with MCF7 [14], with MCF7 [15] and in the test on MCF7 [3] was Active. The half-inhibitory concentration (IC50) in the test with MDA-MB-231 [1] is 1.4 µM; with MCF7 [4], 1 µM; with HEK293 it was greater than 50 µM. Further, the Ratio in the test with MCF7 [7] is listed as 2.51; in the test on MCF7 [10], 4.45; with MDA-MB-231 [12], 9.35; with MCF7 [18], 8.29; in the test with MDA-MB-231 [20], 7.8; in the test with MDA-MB-231 [23], 9.045. Also, the Activity result with MCF7 [8], in the test with MDA-MB-231 [9], in the test with MCF7 [11], in the test with MDA-MB-231 [13], in the test on MDA-MB-231 [16] and with MDA-MB-231 [17] was “Dose-dependent effect” throughout. For the same compound, the Activity entry with MDA-MB-231 [22] is “Dose-dependent effect”; in the test on MDA-MB-231 [24], 100%; in the test with MCF7 [25], “Dose-dependent effect”. Moreover, the inhibition entry in the test on MCF7 [19] is “Active”. The result with MDA-MB-231 [21] was inactive.
For the compound `C1=C2c3ccccc3CC[C@H]2N2CCC[C@H]2C1`, the IC50 was greater than 50 µM in the test on MDA-MB-231 [1], 34.4 µM in the test on MCF7 [4] and greater than 50 µM with HEK293.
Consider `C1=C2c3ccccc3CC[C@@H]2N2CCC[C@H]2C1`, for which the IC50 was 47.2 µM with MDA-MB-231 [1], greater than 50 µM with MCF7 [4] and greater than 50 µM with HEK293.
In the case of `C[C@]12CC=C3c4ccccc4CC[C@H]3N1CCC2`, the IC50 in the test with MDA-MB-231 [1] is 33.9 µM; in the test with MCF7 [4], 4.3 µM; in the test with HEK293, greater than 50 µM.
For `COc1ccc2c(c1)C1=CC[C@@H]3C[C@@H](OCc4ccccc4)CN3[C@H]1CC2` the same measures were 9.8 µM, greater than 50 µM and greater than 50 µM.
The matching figures for `C1=C2c3ccccc3CC[C@H]2N2C[C@H](OCc3ccccc3)C[C@H]2C1`: 35.6 µM, 5.4 µM and greater than 50 µM.

The IC50 is the concentration that gives 50% inhibition.
